The assay concerns the target T1, human NEP (Homo sapiens, UniProt P08473).
T1 construct: purchased R&D Systems, Minneapolis, Minn; 1182-ZN
Put plainly: In vitro enzyme inhibition assay at human NEP (fluorogenic peptide substrate). Format: biochemical. To be noted: pKi values at human NEP (recombinant), given as ranges. The method, then: The inhibitory activities of compounds at human and rat neprilysin (EC 3.4.24.11; NEP) and human angiotensin converting enzyme (ACE) were determined using in vitro assays as described below.
Recombinant human NEP and recombinant human ACE were obtained commercially (R&D Systems, Minneapolis, Minn., catalog numbers 1182-ZN and 929-ZN, respectively). The fluorogenic peptide substrate Mca-D-Arg-Arg-Leu-Dap-(Dnp)-OH (Medeiros et al. (1997) Braz. J. Med. Biol. Res. 30:1157-62; Anaspec, San Jose, Calif.) and Abz-Phe-Arg-Lys(Dnp)-Pro-OH (Araujo et al. (2000) Biochemistry 39:8519-8525; Bachem, Torrance, Calif.) were used in the NEP and ACE assays respectively.
The assays were performed in 384-well white opaque plates at 37° C. using the fluorogenic peptide substrates at a concentration of 10 μM in Assay Buffer (NEP: 50 mM HEPES, pH 7.5, 100 mM NaCl, 0.01% polyethylene glycol sorbitan monolaurate (Tween-20), […]; ACE: 50 mM HEPES, pH 7.5, 100 mM NaCl, 0.01% Tween-20, 1 μM ZnSO4).
Test compounds were assayed over the range of concentrations from 10 μM to 20 pM. Test compounds were added to the enzymes and incubated for 30 minute at 37° C. prior to initiating the reaction by the addition of substrate. Reactions were terminated after 20 minutes of incubation at 37° C. by the addition of glacial acetic acid to a final concentration of 3.6% (v/v).
Plates were read on a fluorometer with excitation and emission wavelengths set to 320 nm and 405 nm, respectively. Inhibition constants were obtained by nonlinear regression of the data using the equation (GraphPad Software, Inc., San Diego, Calif.): ν=ν0/[1+(I/K′)] where ν is the reaction rate, ν0 is the uninhibited reaction rate, I is the inhibitor concentration and K′ is the apparent inhibition constant.
Compounds of the invention were tested in this assay and found to have pKi values at human NEP as follows.

Each structure is given as a SMILES string.

T1 sequence (P08473 52-750 limits assumed): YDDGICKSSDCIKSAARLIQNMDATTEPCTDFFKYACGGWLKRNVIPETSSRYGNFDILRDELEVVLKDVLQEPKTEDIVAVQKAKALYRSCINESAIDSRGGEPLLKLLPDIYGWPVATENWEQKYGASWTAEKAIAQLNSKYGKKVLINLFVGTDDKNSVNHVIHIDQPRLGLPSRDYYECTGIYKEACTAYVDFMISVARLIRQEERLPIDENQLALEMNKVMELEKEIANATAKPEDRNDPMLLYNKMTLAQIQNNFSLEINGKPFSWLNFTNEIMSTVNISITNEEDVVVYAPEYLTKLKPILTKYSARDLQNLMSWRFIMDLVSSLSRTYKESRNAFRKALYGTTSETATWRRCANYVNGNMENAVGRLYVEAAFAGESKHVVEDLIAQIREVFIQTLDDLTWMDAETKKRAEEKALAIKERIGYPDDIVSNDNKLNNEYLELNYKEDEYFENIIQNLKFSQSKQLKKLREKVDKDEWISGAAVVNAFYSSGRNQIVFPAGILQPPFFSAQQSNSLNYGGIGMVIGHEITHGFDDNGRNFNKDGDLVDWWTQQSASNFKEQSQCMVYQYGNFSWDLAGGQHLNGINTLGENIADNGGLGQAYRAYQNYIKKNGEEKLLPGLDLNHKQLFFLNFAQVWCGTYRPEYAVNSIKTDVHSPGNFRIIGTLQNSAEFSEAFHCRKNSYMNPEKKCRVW

`CC(C)(C[C@@H](Cc1ccc(-c2ccccc2)cc1)NC(=O)c1cc(C(=O)N2CCC(O)C2)n[nH]1)C(=O)O` (stereo partly drawn) [Example 9-9, (R)-5-Biphenyl-4-yl-4-{[5-(3-hydroxy-pyrrolidine-1-carbonyl)-2H-pyrazole-3-carbonyl]-amino}-2,2-dimethyl-pentanoic acid]: the Ki was 12.6 to 100 nM.

For the compound `CC(C)(C[C@@H](Cc1ccc(-c2ccccc2)cc1)NC(=O)c1cc(C(=O)N2CCC(O)CC2)n[nH]1)C(=O)O` [Example 9-10, (R)-5-Biphenyl-4-yl-4-{[5-(4-hydroxy-piperidine-1-carbonyl)-2H-pyrazole-3-carbonyl]-amino}-2,2-dimethyl-pentanoic acid], the Ki is 12.6 to 100 nM. Then `CC(C)(C[C@@H](Cc1ccc(-c2ccccc2)cc1)NC(=O)c1cc(C(=O)N2CCC[C@H]2C(=O)O)n[nH]1)C(=O)O` [Example 9-11, (S)-1-[5-((R)-1-Biphenyl-4-ylmethyl-3-carboxy-3-methyl-butylcarbamoyl)-1H-pyrazole-3-carbonyl]-pyrrolidine-2-carboxylic acid], with 1.26 to 10 nM. Then `CNC(=O)c1cc(C(=O)N[C@H](Cc2ccc(-c3ccccc3)cc2)CC(C)(C)C(=O)O)[nH]n1` [Example 9-12, (R)-5-Biphenyl-4-yl-2,2-dimethyl-4-[(5-methylcarbamoyl-2H-pyrazole-3-carbonyl)-amino]-pentanoic acid], with 12.6 to 100 nM; and `CN(C)C(=O)c1cc(C(=O)N[C@H](Cc2ccc(-c3ccccc3)cc2)CC(C)(C)C(=O)O)[nH]n1` [Example 9-13, (R)-5-Biphenyl-4-yl-4-[(5-dimethylcarbamoyl-2H-pyrazole-3-carbonyl)-amino]-2,2-dimethyl-pentanoic acid], with 12.6 to 100 nM.

With `CC(C)CN(C)C(=O)c1cc(C(=O)N[C@H](Cc2ccc(-c3ccccc3)cc2)CC(C)(C)C(=O)O)[nH]n1` [Example 9-14, (R)-5-Biphenyl-4-yl-4-{[5-(isobutyl-methyl-carbamoyl)-2H-pyrazole-3-carbonyl]-amino}-2,2-dimethyl-pentanoic acid], the Ki is 12.6 to 100 nM. With `COCCN(C)C(=O)c1cc(C(=O)N[C@H](Cc2ccc(-c3ccccc3)cc2)CC(C)(C)C(=O)O)[nH]n1` [Example 9-15, (R)-5-Biphenyl-4-yl-4-({5-[(2-methoxy-ethyl)-methyl-carbamoyl]-2H-pyrazole-3-carbonyl}-amino)-2,2-dimethyl-pentanoic acid] the figure was 1.26 to 10 nM; with `CC(C)(C[C@@H](Cc1ccc(-c2ccccc2)cc1)NC(=O)c1cc(C(=O)NCCc2c[nH]cn2)n[nH]1)C(=O)O` [Example 9-17, (R)-5-Biphenyl-4-yl-4-({5-[2-(1H-imidazol-4-yl)-ethylcarbamoyl]-2H-pyrazole-3-carbonyl}-amino)-2,2-dimethyl-pentanoic acid], 12.6 to 100 nM.

Consider `CC(=O)c1cc(C(=O)N[C@H](Cc2ccc(-c3ccccc3)cc2)CC(C)(C)C(=O)O)[nH]n1` [Example 9-18, (R)-4-[(5-Acetyl-2H-pyrazole-3-carbonyl)-amino]-5-biphenyl-4-yl-2,2-dimethyl-pentanoic acid], for which the Ki was 12.6 to 100 nM. `O=C(N[C@H](Cc1ccc(-c2ccccc2)cc1)CC1(C(=O)O)CC1)c1cc(C(=O)O)[nH]n1` [Example 10A, 5-[(R)-2-Biphenyl-4-yl-1-(1-carboxy-cyclopropylmethyl)-ethylcarbamoyl]-2H-pyrazole-3-carboxylic acid]: the Ki was at most 1 nM.

As to `O=C(N[C@H](Cc1ccc(-c2ccccc2)cc1)CC1(C(=O)O)CC1)c1cnn[nH]1` [Example 11-1, 1-{(R)-3-Biphenyl-4-yl-2-[(3H-[1,2,3]triazole-4-carbonyl)-amino]-propyl}-cyclopropanecarboxylic acid], the Ki is 12.6 to 100 nM. With `O=C(N[C@H](Cc1ccc(-c2ccccc2)cc1)CC1(C(=O)O)CC1)c1nc(O)n[nH]1` [Example 11-3, 1-{(R)-3-Biphenyl-4-yl-2-[(5-hydroxy-2H-[1,2,4]triazole-3-carbonyl)-amino]-propyl}-cyclopropanecarboxylic acid], the Ki was 1.26 to 10 nM.

On to `O=C(N[C@H](Cc1ccc(-c2ccccc2)cc1)CC1(C(=O)O)CC1)c1cc(O)no1` [Example 11-5, 1-{(R)-3-Biphenyl-4-yl-2-[(3-hydroxy-isoxazole-5-carbonyl)-amino]-propyl}-cyclopropanecarboxylic acid], for which the inhibition constant (Ki) was at most 1 nM. Regarding `O=C(N[C@H](Cc1ccc(-c2ccccc2)cc1)CC1(C(=O)O)CC1)c1cnc(O)nc1` [Example 11-8, 1-{(R)-3-Biphenyl-4-yl-2-[(2-hydroxy-pyrimidine-5-carbonyl)-amino]-propyl}-cyclopropanecarboxylic acid], the Ki is 1.26 to 10 nM. Turning to `O=C(N[C@H](Cc1ccc(-c2ccccc2)cc1)CC1(C(=O)O)CC1)c1cc(O)n[nH]1` [Example 11-10, 1-{(R)-3-Biphenyl-4-yl-2-[(5-hydroxy-2H-pyrazole-3-carbonyl)-amino]-propyl}-cyclopropanecarboxylic acid], the inhibitory constant (Ki) was 12.6 to 100 nM.

The record behind these values is patent US9725448B2, “Neprilysin inhibitors” (THERAVANCE BIOPHARMA R&D IP, LLC, priority 2011, dated 2017).
